The text below walks through data of patent US9688642B2, “Substituted pyrazines as GPR40 agonists” (Janssen Pharmaceutica NV, priority 2014, dated 2017).

One test concerns the target human GPR40 (Homo sapiens (Human), UniProt O14842). The test is described as follows: GPR40 calcium flux assay, HEK293 cells stably expressing human GPR40. The note with it: transfected HEK293 cells stably expressing human GPR40; individual determinations listed; read-out: hGPR40 Ca2+ Assay EC50. It is filed as cell-based. The method, then:
(§1) Compounds were tested in a calcium flux assay using transfected HEK293 cells stably expressing either human GPR40 or rat GPR40. Human GPR40 expressing cells were cultured in DMEM-High Glucose media supplemented with 10% fetal bovine serum, 1×L-Glutamine, 1× Penicillin/Streptomycin and 500 μg/mL G418. Rat GPR40 expressing cells were cultured in DMEM-High Glucose media supplemented with 10% fetal bovine serum and 1 μg/mL puromycin. Cells were plated into poly-D-lysine coated 384-well plates and cultured overnight in a 37° C. humidified tissue culture incubator under 5% CO2/90% O2 atmosphere. On the day of the experiment, the culture media was replaced with assay buffer (HBSS, 20 mM HEPES, 0.1% BSA) and the cells incubated at 37° C. for 1 h. Calcium-sensitive fluorescent dye (Fluo 8 No-Wash Calcium Dye, ABD Bioquest) was then added and the cells incubated for another 30 min at 37° C. followed by 15 min at room temperature while protected from the light. The cell plate and a plate of diluted compounds of Formula (I) were loaded into a fluorescent plate reader that added compounds onto the cells while measuring the fluorescence intensity of each well. The plate reader recorded fluorescence intensity at 1 second intervals for 8 min and provided the data for analysis in an Excel format. EC50 values were calculated using Prism (GraphPad) software.

The next test addresses rat GPR40 (Rattus norvegicus (Rat), UniProt Q8K3T4). Briefly: GPR40 calcium flux assay, HEK293 cells stably expressing rat GPR40. It is filed as cell-based. The note with it: transfected HEK293 cells stably expressing rat GPR40; individual determinations listed; read-out: rGPR40 Ca2+ Assay EC50. The method, then:
as §1

Structures are written as SMILES. Where “and” joins values, the source holds several entries; their conditions need not be identical. Equal entries are not always repeated.

human GPR40, sequence (O14842 whole entry): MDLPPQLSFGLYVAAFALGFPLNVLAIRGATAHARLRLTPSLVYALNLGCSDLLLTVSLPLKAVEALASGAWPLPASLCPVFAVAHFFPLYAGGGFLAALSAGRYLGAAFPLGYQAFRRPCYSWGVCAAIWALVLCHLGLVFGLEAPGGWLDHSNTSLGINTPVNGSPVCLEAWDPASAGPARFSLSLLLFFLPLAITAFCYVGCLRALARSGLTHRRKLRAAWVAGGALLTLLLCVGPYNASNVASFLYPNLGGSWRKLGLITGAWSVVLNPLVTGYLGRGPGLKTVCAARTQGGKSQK
rat GPR40, sequence (Q8K3T4 whole entry): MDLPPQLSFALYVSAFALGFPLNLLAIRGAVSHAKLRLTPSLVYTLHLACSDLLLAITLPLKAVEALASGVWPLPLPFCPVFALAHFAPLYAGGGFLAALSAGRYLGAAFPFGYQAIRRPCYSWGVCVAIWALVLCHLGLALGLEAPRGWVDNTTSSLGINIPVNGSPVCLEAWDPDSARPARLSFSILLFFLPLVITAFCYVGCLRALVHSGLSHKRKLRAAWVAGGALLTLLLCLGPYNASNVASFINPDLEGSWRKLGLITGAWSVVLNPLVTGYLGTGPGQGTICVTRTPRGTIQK

On to `COc1ccc(F)c(-c2ncc(COc3cccc([C@@H](CC(=O)O)C4CC4)c3)nc2CC(C)(C)C)c1` [Cpd 1, (3S)-3-cyclopropyl-3-[3-[[6-(2,2-dimethylpropyl)-5-(2-fluoro-5-methoxy-phenyl)pyrazin-2-yl]methoxy]phenyl]propanoic acid], for which the EC50 at human GPR40 was 2 nM; on rat GPR40, 39 nM and 25 nM.
In the case of `CCCCc1nc(COc2cccc([C@@H](CC(=O)O)C3CC3)c2)cnc1-c1cc(OC)ccc1F` [Cpd 3, (3S)-3-[3-[[6-butyl-5-(2-fluoro-5-methoxy-phenyl)pyrazin-2-yl]methoxy]phenyl]-3-cyclopropyl-propanoic acid], the EC50 at human GPR40 is 3 nM and 2 nM; on rat GPR40 it was 33 nM and 26 nM.
`COc1ccc(F)c(-c2ncc(COc3cccc([C@@H](CC(=O)O)C4CC4)c3)nc2OCC(C)(C)C)c1` [Cpd 4, (3S)-3-cyclopropyl-3-[3-[[6-(2,2-dimethylpropoxy)-5-(2-fluoro-5-methoxy-phenyl)pyrazin-2-yl]methoxy]phenyl]propanoic acid]: the EC50 is 9 nM and 3 nM and 2 nM at human GPR40; 13 nM (2×) and 9 nM at rat GPR40.
In the case of `COc1ccc(F)c(-c2ncc(COc3cccc([C@@H](CC(=O)O)C4CC4)c3)nc2CC(C)C)c1` [Cpd 5, (3S)-3-cyclopropyl-3-[3-[[5-(2-fluoro-5-methoxy-phenyl)-6-isobutyl-pyrazin-2-yl]methoxy]phenyl]propanoic acid], the EC50 at human GPR40 is 3 nM and 2 nM; at rat GPR40, 12 nM and 10 nM.
On to `COc1ccc(F)c(-c2ncc(COc3cccc([C@@H](CC(=O)O)C4CC4)c3)nc2N2CC3(CCC3)C2)c1` [Cpd 6, (3S)-3-[3-[(6-[2-azaspiro[3.3]heptan-2-yl]-5-(2-fluoro-5-methoxyphenyl)pyrazin-2-yl)methoxy]phenyl]-3-cyclopropylpropanoic acid], for which the concentration giving a half-maximal response (EC50) was 5 nM and 4 nM at human GPR40; 17 nM and 14 nM at rat GPR40.
Take `COc1ccc(F)c(-c2ncc(COc3cccc([C@@H](CC(=O)O)C4CC4)c3)nc2OC2CCCCC2)c1` [Cpd 7, (3S)-3-[3-[[6-(cyclohexoxy)-5-(2-fluoro-5-methoxy-phenyl)pyrazin-2-yl]methoxy]phenyl]-3-cyclopropyl-propanoic acid]: the EC50 is 7 nM and 6 nM at human GPR40; 29 nM and 27 nM at rat GPR40.
As to `COc1cc(-c2ncc(COc3cccc([C@@H](CC(=O)O)C4CC4)c3)nc2OC2CCCCC2)c(F)cn1` [Cpd 9, (3S)-3-[3-[[6-(cyclohexoxy)-5-(5-fluoro-2-methoxy-4-pyridyl)pyrazin-2-yl]methoxy]phenyl]-3-cyclopropyl-propanoic acid], the EC50 was 7 nM at human GPR40; 20 nM and 16 nM on rat GPR40.
Take `COc1ccc(F)c(-c2ncc(COc3cccc([C@@H](CC(=O)O)C4CC4)c3)nc2-c2cc(C)cc(C)c2)c1` [Cpd 10, (3S)-3-cyclopropyl-3-[3-[[6-(3,5-dimethylphenyl)-5-(2-fluoro-5-methoxy-phenyl)pyrazin-2-yl]methoxy]phenyl]propanoic acid]: the EC50 on human GPR40 is 8 nM and 7 nM; at rat GPR40, 33 nM and 29 nM.
For the molecule `COc1cc(-c2ncc(COc3cccc([C@@H](CC(=O)O)C4CC4)c3)nc2C=C(C)C)c(F)cn1` [Cpd 11, (3S)-3-cyclopropyl-3-[3-[[5-(5-fluoro-2-methoxy-4-pyridyl)-6-(2-methylprop-1-enyl)pyrazin-2-yl]methoxy]phenyl]propanoic acid], the concentration giving a half-maximal response (EC50) at human GPR40 was 11 nM and 7 nM; on rat GPR40 it was 29 nM and 23 nM.
For `COc1cc(-c2ncc(COc3cccc([C@@H](CC(=O)O)C4CC4)c3)nc2OCC(C)C)c(F)cn1` [Cpd 12, (3S)-3-cyclopropyl-3-[3-[[5-(5-fluoro-2-methoxy-4-pyridyl)-6-isobutoxy-pyrazin-2-yl]methoxy]phenyl]propanoic acid], the EC50 on human GPR40 is 11 nM and 8 nM; at rat GPR40, 24 nM and 21 nM.
Consider `COc1ccc(F)c(-c2ncc(COc3cccc([C@@H](CC(=O)O)C4CC4)c3)nc2OCC(C)C)c1` [Cpd 14, (3S)-3-cyclopropyl-3-[3-[[5-(2-fluoro-5-methoxy-phenyl)-6-isobutoxy-pyrazin-2-yl]methoxy]phenyl]propanoic acid], for which the EC50 on human GPR40 was 10 nM (2×) and 9 nM; at rat GPR40 it was 16 nM and 32 nM and 31 nM and 21 nM and 18 nM.
For `COc1cc(-c2ncc(COc3cccc([C@@H](CC(=O)O)C4CC4)c3)nc2C2=CCCC2(C)C)c(F)cn1` [Cpd 15, (3S)-3-cyclopropyl-3-[3-[[6-(5,5-dimethylcyclopenten-1-yl)-5-(5-fluoro-2-methoxy-4-pyridyl)pyrazin-2-yl]methoxy]phenyl]propanoic acid], the EC50 at human GPR40 was 15 nM and 7 nM; on rat GPR40 it was 21 nM and 15 nM.
For `COc1cc(-c2ncc(COc3cccc([C@@H](CC(=O)O)C4CC4)c3)nc2OC2CCCC2)c(F)cn1` [Cpd 16, (3S)-3-[3-[[6-(cyclopentoxy)-5-(5-fluoro-2-methoxy-4-pyridyl)pyrazin-2-yl]methoxy]phenyl]-3-cyclopropyl-propanoic acid], the EC50 on human GPR40 was 11 nM and 10 nM; on rat GPR40 it was 38 nM and 36 nM.
Turning to `COc1ccc(F)c(-c2ncc(COc3cccc([C@@H](CC(=O)O)C4CC4)c3)nc2-c2ccccc2)c1` [Cpd 18, (3S)-3-cyclopropyl-3-[3-[[5-(2-fluoro-5-methoxy-phenyl)-6-phenyl-pyrazin-2-yl]methoxy]phenyl]propanoic acid], the half-maximal effective concentration (EC50) was 13 nM and 10 nM on human GPR40; 105 nM and 67 nM at rat GPR40.
As to `COc1ccc(F)c(-c2ncc(COc3cccc([C@@H](CC(=O)O)C4CC4)c3)nc2OC2CCC2)c1` [Cpd 19, (3S)-3-[3-[[6-(cyclobutoxy)-5-(2-fluoro-5-methoxy-phenyl)pyrazin-2-yl]methoxy]phenyl]-3-cyclopropyl-propanoic acid], the EC50 is 14 nM and 11 nM at human GPR40; 70 nM and 49 nM on rat GPR40.
As for `COc1ccc(F)c(-c2ncc(COc3cccc([C@@H](CC(=O)O)C4CC4)c3)nc2-c2cccc(C)c2)c1` [Cpd 20, (3S)-3-cyclopropyl-3-[3-[[5-(2-fluoro-5-methoxy-phenyl)-6-(m-tolyl)pyrazin-2-yl]methoxy]phenyl]propanoic acid], the EC50 is 15 nM and 11 nM at human GPR40; 90 nM and 78 nM at rat GPR40.
Take `COc1ccc(F)c(-c2ncc(COc3cccc([C@@H](CC(=O)O)C4CC4)c3)nc2OCC2CC2)c1` [Cpd 21, (3S)-3-cyclopropyl-3-[3-[[6-(cyclopropylmethoxy)-5-(2-fluoro-5-methoxy-phenyl)pyrazin-2-yl]methoxy]phenyl]propanoic acid]: the EC50 at human GPR40 was 17 nM and 12 nM; on rat GPR40, 65 nM and 57 nM.
As to `COc1ccc(F)c(-c2ncc(COc3cccc([C@@H](CC(=O)O)C4CC4)c3)nc2N2CCCCC2)c1` [Cpd 22, (3S)-3-cyclopropyl-3-[3-[[5-(2-fluoro-5-methoxy-phenyl)-6-(1-piperidyl)pyrazin-2-yl]methoxy]phenyl]propanoic acid], the EC50 on human GPR40 is 18 nM and 12 nM; at rat GPR40, 53 nM and 46 nM and 43 nM and 31 nM.
`COc1ccc(F)c(-c2ncc(COc3cccc([C@@H](CC(=O)O)C4CC4)c3)nc2-c2cccc(C(C)C)c2)c1` [Cpd 23, (3S)-3-cyclopropyl-3-[3-[[5-(2-fluoro-5-methoxy-phenyl)-6-(3-isopropylphenyl)pyrazin-2-yl]methoxy]phenyl]propanoic acid]: the concentration giving a half-maximal response (EC50) on human GPR40 is 23 nM and 14 nM; on rat GPR40, 58 nM and 50 nM.
`COc1ccc(F)c(-c2ncc(COc3cccc([C@@H](CC(=O)O)C4CC4)c3)nc2OC2CC(C)(C)CC(C)(C)C2)c1` [Cpd 24, (3S)-3-cyclopropyl-3-[3-[[5-(2-fluoro-5-methoxy-phenyl)-6-(3,3,5,5-tetramethylcyclohexoxy)pyrazin-2-yl]methoxy]phenyl]propanoic acid]: the EC50 on human GPR40 is 24 nM and 16 nM and 40 nM; on rat GPR40 it was 187 nM and 178 nM and 183 nM.
Take `COc1ccc(F)c(-c2ncc(COc3cccc([C@@H](CC(=O)O)C4CC4)c3)nc2-c2ccc(C(C)C)cc2)c1` [Cpd 25, (3S)-3-cyclopropyl-3-[3-[[5-(2-fluoro-5-methoxy-phenyl)-6-(4-isopropylphenyl)pyrazin-2-yl]methoxy]phenyl]propanoic acid]: the EC50 on human GPR40 was 23 nM and 18 nM; on rat GPR40, 45 nM and 40 nM.
On to `COc1ccc(F)c(-c2ncc(COc3cccc([C@@H](CC(=O)O)C4CC4)c3)nc2OC2CC(C)(C)OC(C)(C)C2)c1` [Cpd 26, (3S)-3-cyclopropyl-3-[3-[[5-(2-fluoro-5-methoxy-phenyl)-6-(2,2,6,6-tetramethyltetrahydropyran-4-yl)oxy-pyrazin-2-yl]methoxy]phenyl]propanoic acid], for which the concentration giving a half-maximal response (EC50) was 21 nM on human GPR40; 111 nM and 108 nM on rat GPR40.
As to `COc1ccc(F)c(-c2ncc(COc3cccc([C@@H](CC(=O)O)C4CC4)c3)nc2OC2CCCCCC2)c1` [Cpd 27, (3S)-3-[3-[[6-(cycloheptoxy)-5-(2-fluoro-5-methoxy-phenyl)pyrazin-2-yl]methoxy]phenyl]-3-cyclopropyl-propanoic acid], the concentration for a half-maximal effect (EC50) on human GPR40 was 28 nM and 21 nM; on rat GPR40, 48 nM and 34 nM.
Take `COc1cc(-c2ncc(COc3cccc([C@@H](CC(=O)O)C4CC4)c3)nc2-c2ccc(C)s2)c(F)cn1` [Cpd 28, (3S)-3-cyclopropyl-3-[3-[[5-(5-fluoro-2-methoxy-4-pyridyl)-6-(5-methyl-2-thienyl)pyrazin-2-yl]methoxy]phenyl]propanoic acid]: the EC50 is 26 nM and 23 nM on human GPR40; 57 nM and 54 nM on rat GPR40.
